Here are results for six compounds from PubChem BioAssay AID1918954 (Molecular Pharmacology Branch, DTP, NCI, 2023).

SMILES strings stand for the structures. Several values for one entry are separate records, joined by “and”; a condition that tells them apart may be missing. Identical values can stand only once.

The test relates to MDA-MB-468 complex spheroids with HUVEC/MSC, viability. The test can be described thus: Anticancer human tumor MDA-MB-468 cell line growth inhibition.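 On all read-outs here: spheroids exposed to agents for seven days.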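 On viability, T/C: 100% = DMSO vehicle control viability.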 The conditions noted are these: for viability, T/C: stronger effect = lower value. The method in brief:
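Complex spheroids of tumor cells with HUVEC and human MSCs, exposed to iadademstat combined with other agents. Each agent tested in half-log steps from near clinical Cmax (else 10 microM top), DMSO ≤0.25%.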

Where [1] appears, read: curve of first compound, second compound 0.1 µM.
The mark [2] stands for this setting: curve of first compound, second compound 0.316 µM.
The mark [3] stands for this setting: curve of first compound, second compound 1 µM.
Where [4] appears, read: curve of first compound, second compound 3.16 µM.
[5] abbreviates: curve of first compound, second compound 10 µM.
Where [6] appears, read: second compound 0.1 µM, first compound 0.00316 µM.
Setting [7] is: second compound 0.1 µM, first compound 0.01 µM.
The mark [8] stands for this setting: second compound 0.1 µM, first compound 0.0316 µM.
Setting [9] is: second compound 0.1 µM, first compound 0.1 µM.
[10] abbreviates: second compound 0.316 µM, first compound 0.00316 µM.
The mark [11] stands for this setting: second compound 0.316 µM, first compound 0.01 µM.
[12] abbreviates: second compound 0.316 µM, first compound 0.0316 µM.
Where [13] appears, read: second compound 0.316 µM, first compound 0.1 µM.
Setting [14] is: second compound 1 µM, first compound 0.00316 µM.
Setting [15] is: second compound 1 µM, first compound 0.01 µM.
Setting [16] is: second compound 1 µM, first compound 0.0316 µM.
[17] abbreviates: second compound 1 µM, first compound 0.1 µM.
Setting [18] is: second compound 3.16 µM, first compound 0.00316 µM.
Where [19] appears, read: second compound 3.16 µM, first compound 0.01 µM.
[20] abbreviates: second compound 3.16 µM, first compound 0.0316 µM.
[21] abbreviates: second compound 3.16 µM, first compound 0.1 µM.
Setting [22] is: second compound 10 µM, first compound 0.00316 µM.
Setting [23] is: second compound 10 µM, first compound 0.01 µM.
[24] abbreviates: second compound 10 µM, first compound 0.0316 µM.
Where [25] appears, read: second compound 10 µM, first compound 0.1 µM.

Broadly, the IC50 is the point on the concentration scale where inhibition reaches its midpoint. For orientation: viability, T/C means the ratio of treated to control. On to `CC(C)CC(NC(=O)CNC(=O)c1cc(Cl)ccc1Cl)B1OC(=O)CC(CC(=O)O)(C(=O)O)O1` (stereo unspecified) + NC1CCC(NC2CC2c2ccccc2)CC1, for which the half-maximal inhibitory concentration (IC50) reads like this: under setting [1], 3.9 nM; under setting [2], 3.97 nM; under setting [3], 3.33 nM; under setting [4], 4.4 nM; under setting [5], 2.99 nM. Further, the viability, T/C is 110% (second compound 0.1 µM, first compound 0.000316 µM); 115% (second compound 0.1 µM, first compound 0.001 µM); 59.5% under setting [6]; 8.34% under setting [7]; 1.37% under setting [8]; 1.7% under setting [9]. Further, the viability, T/C is, setting by setting: (second compound 0.316 µM, first compound 0.000316 µM) 98.6%; (second compound 0.316 µM, first compound 0.001 µM) 99.2%; under setting [10], 60.4%; under setting [11], 7.32%; under setting [12], 2.63%; under setting [13], 1.14%. Moreover, the viability, T/C reads like this: (second compound 1 µM, first compound 0.000316 µM) 89.9%; (second compound 1 µM, first compound 0.001 µM) 118%; under setting [14], 52.1%; under setting [15], 9.33%; under setting [16], 1.32%; under setting [17], 1.76%. For the same compound, the viability, T/C runs as follows: (second compound 3.16 µM, first compound 0.000316 µM) 72.7%; (second compound 3.16 µM, first compound 0.001 µM) 101%; under setting [18], 67%; under setting [19], 7.42%; under setting [20], 1.53%; under setting [21], 1.59%. In addition, the viability, T/C (second compound 10 µM, first compound 0.000316 µM) was 80.6%; the viability, T/C (second compound 10 µM, first compound 0.001 µM) was 65.4%; the viability, T/C under setting [22] was 50.3%; the viability, T/C under setting [23] was 4.74%; the viability, T/C under setting [24] is 2.13%; the viability, T/C under setting [25] was 2.15%.
In the case of `Nc1ncn(C2CC(O)C(CO)O2)c(=O)n1` (stereo unspecified), the viability, T/C was 81.4% and 94.2% (compound 0.00316 µM); 59.5% and 67% (compound 0.01 µM); 23.6% and 31.2% (compound 0.0316 µM); 15% and 14.6% (compound 0.1 µM); 12.6% and 11% (compound 0.316 µM); 12% and 8.85% (compound 1 µM). For the same compound, the half-maximal inhibitory concentration (IC50) (curve of compound) is 13.6 nM and 17.3 nM.
`CC1COCCN1c1cc(C2(S(C)(=N)=O)CC2)nc(-c2ccnc3[nH]ccc23)n1` (stereo unspecified): the viability, T/C reads like this: (compound 0.0316 µM) 101% and 78.9%; (compound 0.1 µM) 67.4% and 88.1%; (compound 0.316 µM) 50.6% and 66.4%; (compound 1 µM) 30.4% and 46%; (compound 3.16 µM) 21.9% and 24.2%; (compound 10 µM) 11.6% and 9.82%. In addition, the half-inhibitory concentration (IC50) (curve of compound) is 282 nM and 835 nM.
Turning to `NS(=O)(=O)OCC1CC(n2ccc3c(NC4CCc5ccccc54)ncnc32)CC1O` (stereo unspecified) + NC1CC1c1ccc(-c2cccc(O)c2)cc1, the IC50 runs as follows: under setting [1], 11.5 nM; under setting [2], 11.2 nM; under setting [3], below 9.49 nM; under setting [4], below 9.49 nM; under setting [5], below 9.49 nM. For the same compound, the viability, T/C reads like this: (second compound 0.1 µM, first compound 0.00949 µM) 54.5%; (second compound 0.1 µM, first compound 0.03 µM) 28.2%; (second compound 0.1 µM, first compound 0.0949 µM) 9.26%; (second compound 0.1 µM, first compound 0.3 µM) 5.09%; (second compound 0.1 µM, first compound 0.949 µM) 2.96%; (second compound 0.1 µM, first compound 3 µM) 2.17%. Moreover, the viability, T/C is 54.2% (second compound 0.316 µM, first compound 0.00949 µM); 26.2% (second compound 0.316 µM, first compound 0.03 µM); 9.29% (second compound 0.316 µM, first compound 0.0949 µM); 5.11% (second compound 0.316 µM, first compound 0.3 µM); 3% (second compound 0.316 µM, first compound 0.949 µM); 2.26% (second compound 0.316 µM, first compound 3 µM). Besides, the viability, T/C is 45.8% (second compound 1 µM, first compound 0.00949 µM); 20.7% (second compound 1 µM, first compound 0.03 µM); 9.67% (second compound 1 µM, first compound 0.0949 µM); 4.9% (second compound 1 µM, first compound 0.3 µM); 3.15% (second compound 1 µM, first compound 0.949 µM); 2.38% (second compound 1 µM, first compound 3 µM). Further, the viability, T/C is 36.5% (second compound 3.16 µM, first compound 0.00949 µM); 18.4% (second compound 3.16 µM, first compound 0.03 µM); 9.14% (second compound 3.16 µM, first compound 0.0949 µM); 5.23% (second compound 3.16 µM, first compound 0.3 µM); 3.44% (second compound 3.16 µM, first compound 0.949 µM); 2.31% (second compound 3.16 µM, first compound 3 µM). Also, the viability, T/C is 20.9% (second compound 10 µM, first compound 0.00949 µM); 12.1% (second compound 10 µM, first compound 0.03 µM); 5.43% (second compound 10 µM, first compound 0.0949 µM); 3.74% (second compound 10 µM, first compound 0.3 µM); 2.55% (second compound 10 µM, first compound 0.949 µM); 2.05% (second compound 10 µM, first compound 3 µM).
In the case of `O=C(C=Cn1cnc(-c2cc(C(F)(F)F)cc(C(F)(F)F)c2)n1)NNc1cnccn1` + NC1CC1c1ccc(-c2cccc(O)c2)cc1, the IC50 runs as follows: under setting [1], below 3.16 nM; under setting [2], below 3.16 nM; under setting [3], below 3.16 nM; under setting [4], below 3.16 nM; under setting [5], below 3.16 nM. The viability, T/C is 38.1% under setting [6]; 30.3% under setting [7]; 20.7% under setting [8]; 3.44% under setting [9]; 1.7% (second compound 0.1 µM, first compound 0.316 µM); 0.86% (second compound 0.1 µM, first compound 1 µM). For the same compound, the viability, T/C under setting [10] was 36.9%; the viability, T/C under setting [11] is 31%; the viability, T/C under setting [12] was 19.6%; the viability, T/C under setting [13] is 3.54%; the viability, T/C (second compound 0.316 µM, first compound 0.316 µM) is 1.34%; the viability, T/C (second compound 0.316 µM, first compound 1 µM) was 0.96%. The viability, T/C by setting is: under setting [14], 38.5%; under setting [15], 28.9%; under setting [16], 18.1%; under setting [17], 3.32%; (second compound 1 µM, first compound 0.316 µM) 1.45%; (second compound 1 µM, first compound 1 µM) 0.94%. Further, the viability, T/C under setting [18] was 33.8%; the viability, T/C under setting [19] is 34.2%; the viability, T/C under setting [20] was 19.7%; the viability, T/C under setting [21] is 3.27%; the viability, T/C (second compound 3.16 µM, first compound 0.316 µM) was 1.83%; the viability, T/C (second compound 3.16 µM, first compound 1 µM) is 1.13%. Also, the viability, T/C reads like this: under setting [22], 31%; under setting [23], 28.9%; under setting [24], 18.3%; under setting [25], 4.7%; (second compound 10 µM, first compound 0.316 µM) 2.04%; (second compound 10 µM, first compound 1 µM) 1.62%.
Take `Nc1ccccc1NC(=O)c1ccc(CNC(=O)OCc2cccnc2)cc1`: the viability, T/C (compound 0.00949 µM) is 98.7% and 100%; the viability, T/C (compound 0.03 µM) was 99.5% and 103%; the viability, T/C (compound 0.0949 µM) is 70.2% and 36.1%; the viability, T/C (compound 0.3 µM) was 14.8% and 2.86%; the viability, T/C (compound 0.949 µM) is 3.01% and 0.37%; the viability, T/C (compound 3 µM) is 1.7% and 0.2%. Moreover, the concentration for half-maximal inhibition (IC50) (curve of compound) is 145 nM and 74.3 nM.
